Among the data in US20250340551A1, “SMALL MOLECULE MODULATORS OF STAT6” (Gilead Sciences, Inc., priority 2024, published 2025) are Emax, EC50 and Kd values, retold here.

One assay relates to Eotaxin-3 (CCL26) release in human whole blood stimulated with IL-4. Briefly: Human whole blood eotaxin-3 assay (IL-4 stimulated, Eotaxin-3 release). It counts as cell-based. To be noted: Homo sapiens, 48 h. As to the method:
This was a human whole blood assay using recombinant human Interleukin 4 to stimulate the blood and measuring the ability of the test compounds to inhibit eotaxin-3 release. The biological activities of the test compounds have been tested in human whole blood stimulated with IL-4 measuring Eotaxin-3 release. The test compounds were added to 384 well clear flat-bottom plate in a 4-fold serial dilution in triplicates using a liquid handler. Human whole blood stabilized in lithium-heparin tubes was added in a volume of 65 μL per well, resulting in a final DMSO concentration of 0.5%. The plate is incubated for 2 h at 37° C. under 5% CO2/95% air. Subsequently, 5 μL of recombinant human IL-4 (R&D Systems, cat #204-ILB) was added to the wells to a final concentration of 400 pM. The plate was incubated for 48 h at 37° C. under 5% CO2/95% air. The plate was spun down for 10 minutes at 500×g and 20 μL supernatant was harvested and transferred to a 384 well v-bottom plate using a liquid handler and stored at −20° C. until further analysis. 10 μL supernatant was used to measure the level of Eotaxin-3 (CCL26) using Human Eotaxin-3 MSD kit from Mesocsale (Cat #K251UEK-4). The assay was performed according to the manufacture instructions.
The data from the human whole blood eotaxin-3 assay is shown below for Examples 1u2, 1x1, 1af26, and 1af36 (where the effect in % is plotted against the test concentration in M on a log-scale).
With `CNc1ccc(-c2ccnc3c2cc(CN2CC[C@@H](c4ccc(C(=O)N(C)C)cc4)C[C@@H]2C)n3C)nc1` (single isomer, unassigned) [Example 1o28], the maximum response (Emax) was under 20%.
Still for that read-out and setting: as for `CNc1ccc(-c2ccnc3c2cc(CN2CC[C@H](c4ccc(C(=O)N(C)C)cc4)C[C@H]2C)n3C)nc1` (single isomer, unassigned) [Example 1o29], the figure is under 20%; as for `CNc1ccc(-c2ccnc3c2cc(CN2CC[C@@H](c4ccc(C(=O)N(C)C)cc4)[C@H](F)C2)n3C)nc1` (stereo in doubt) [Example 1o17, 4-((3S,4S)-3-fluoro-1-((1-methyl-4-(5-(methylamino)pyridin-2-yl)-1H-pyrrolo[2,3-b]pyridin-2-yl)methyl)piperidin-4-yl)-N,N-dimethylbenzamide], under 20%.

The assay is the same for the next values; noted with them: Homo sapiens, Hec50, 48 h.
With `Cc1cc(C(=O)N(C)C)cnc1C1=CCN(Cc2cc3c(-c4ccc(N)nn4)ccnc3n2C)CC1` [Example 1ae22, 1′-((4-(6-Aminopyridazin-3-yl)-1-methyl-1H-pyrrolo[2,3-b]pyridin-2-yl)methyl)-N,N,3-trimethyl-1′,2′,3′,6′-tetrahydro-[2,4′-bipyridine]-5-carboxamide], the EC50 came out at 0.392 µM.
For `[2H]C([2H])([2H])N(C(=O)c1ccc(C2CCN([C@H](C)c3cc4c(-c5ccc(N)cn5)ccnc4n3C)CC2)c(C)c1)C([2H])([2H])[2H]` [Example 1af42, (R)-4-(1-(1-(4-(5-amino-pyridin-2-yl)-1-methyl-1H-pyrrolo[2,3-b]pyridin-2-yl)ethyl)piperidin-4-yl)-3-methyl-N,N-bis(methyl-d3)benzamide], the EC50 came out at 1.4 µM.
Same read-out and setting: as for `[2H]C([2H])([2H])N(C(=O)c1ccc(C2CCN([C@@H](C)c3cc4c(-c5ccc(NCCOC)nc5)ccnc4n3C)CC2)cc1)C([2H])([2H])[2H]` [Example 1af50, (S)-4-(1-(1-(4-(6-((2-methoxyethyl)amino)pyridin-3-yl)-1-methyl-1H-pyrrolo[2,3-b]pyridin-2-yl)ethyl)piperidin-4-yl)-N,N-bis(methyl-d3)benzamide], the figure is 0.466 µM.

The target of the next assay is human STAT6 (Homo sapiens (Human), UniProt P42226). Briefly: Surface plasmon resonance assay (Biacore 8K, binding to immobilized STAT6). The settings on record: human STAT6 aa122-658, N-terminal His-tag, CM5 chip, 25° C.; geometric mean; read-out: STAT6 SPR Kd. The method in brief: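 Run at 25° C with His-tagged STAT6 aa122-658 (insect-cell expressed) amine-coupled to a CM5 chip, reference-subtracted, in PBS-P+ with 2% DMSO. Multi-cycle kinetics: 60 sec. contact, up to 300 sec. dissociation. Affinity fitted from late report-point binding isotherms, with Rmax both free and fixed to theoretical 1:1.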
Chain of human STAT6 (P42226 122-658): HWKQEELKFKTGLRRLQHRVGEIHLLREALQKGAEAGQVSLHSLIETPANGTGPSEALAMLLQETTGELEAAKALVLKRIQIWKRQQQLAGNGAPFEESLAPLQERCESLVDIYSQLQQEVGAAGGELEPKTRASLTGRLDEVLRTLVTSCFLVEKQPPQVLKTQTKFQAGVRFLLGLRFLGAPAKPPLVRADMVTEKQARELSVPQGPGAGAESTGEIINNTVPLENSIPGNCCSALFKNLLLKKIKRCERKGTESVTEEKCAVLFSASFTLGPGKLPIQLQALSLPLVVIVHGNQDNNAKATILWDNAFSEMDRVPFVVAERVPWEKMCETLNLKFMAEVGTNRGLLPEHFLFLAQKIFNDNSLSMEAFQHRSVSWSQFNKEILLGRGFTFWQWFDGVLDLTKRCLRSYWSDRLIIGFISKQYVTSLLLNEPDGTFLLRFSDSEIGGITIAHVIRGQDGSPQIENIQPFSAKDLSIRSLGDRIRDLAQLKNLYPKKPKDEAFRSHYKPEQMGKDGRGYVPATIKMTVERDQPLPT
Turning to `C[C@H]1CN(c2ccc(C(=O)N(C)C)cc2)CCN1Cc1cc2c(-c3ccc(N)nc3)ccnc2n1C` [Example 1n5, 4-[(3S)-4-[[4-(6-Amino-3-pyridyl)-1-methyl-pyrrolo[2,3-b]pyridin-2-yl]methyl]-3-methyl-piperazin-1-yl]-N,N-dimethyl-benzamide], the Kd is 0.0686 µM.
Turning to `CNc1ccc(-c2ccnc3c2cc(CN2CCN(c4ccc(C(=O)N(C)C)cn4)CC2)n3C)cn1` [Example 1n7, N,N-Dimethyl-6-[4-[[1-methyl-4-[6-(methylamino)-3-pyridyl]pyrrolo[2,3-b]pyridin-2-yl]methyl]piperazin-1-yl]pyridine-3-carboxamide], the equilibrium dissociation constant (Kd) was found to be 1.04 µM.
On the same count and under the same terms, in the case of `CNc1cc(C)c(-c2ccnc3c2cc(CN2CCN(c4ccc(C(=O)N(C)C)cc4)CC2)n3C)cn1` [Example 1n8, N,N-Dimethyl-4-[4-[[1-methyl-4-[4-methyl-6-(methylamino)-3-pyridyl]pyrrolo[2,3-b]pyridin-2-yl]methyl]piperazin-1-yl]benzamide] it was 2.6 µM; in that of `CNc1ccc(-c2ccnc3c2cc(CN2CCN(c4ccc(C(=O)N(C)C)cn4)CC2)n3C)nc1` [Example 1n9, N,N-Dimethyl-6-[4-[[1-methyl-4-[5-(methylamino)-2-pyridyl]pyrrolo[2,3-b]pyridin-2-yl]methyl]piperazin-1-yl]pyridine-3-carboxamide], 8.92 µM.
`CNc1ccc(-c2ccnc3c2cc(CN2CCC(F)(c4ccc(C(=O)N(C)C)cc4)CC2)n3C)nc1` [Example 1o19, 4-[4-Fluoro-1-[[1-methyl-4-[5-(methylamino)-2-pyridyl]pyrrolo[2,3-b]pyridin-2-yl]methyl]-4-piperidyl]-N,N-dimethyl-benzamide]: the dissociation constant Kd worked out at 0.173 µM.
`CNc1ccc(-c2ccnc3c2cc([C@@H](C)N2CCC(c4ccc(C(=O)N(C)C)cc4)CC2)n3C)nc1` [Example 1o25, (R)—N,N-dimethyl-4-(1-(1-(1-methyl-4-(5-(methyl-amino)pyridin-2-yl)-1H-pyrrolo[2,3-b]pyridin-2-yl)ethyl)piperidin-4-yl)benzamide]: the dissociation constant Kd stood at 1.35 µM.
Still for that read-out and setting: as for `CNc1ccc(-c2ccnc3c2cc(CN2CC[C@H](c4ccc(C(=O)N(C)C)cc4)C[C@@H]2C)n3C)nc1` [Example 1o27, N,N-dimethyl-4-((2S,4S)-2-methyl-1-((1-methyl-4-(5-(methylamino)-pyridin-2-yl)-1H-pyrrolo[2,3-b]pyridin-2-yl)methyl)piperidin-4-yl)benzamide], the figure is 0.147 µM; as for `CNc1ccc(-c2ccnc3c2cc(CN2CCC(c4ccc(C(=O)N(C)C)cn4)CC2)n3C)nn1` [Example 1p5, N,N-Dimethyl-6-[1-[[1-methyl-4-[6-(methylamino)pyridazin-3-yl]pyrrolo[2,3-b]pyridin-2-yl]methyl]-4-piperidyl]pyridine-3-carboxamide], 0.148 µM; as for `CC(=O)Nc1ccc(-c2ccnc3c2cc(CN2CC[C@H](c4ccc(C(=O)N(C)C)cc4)[C@H](F)C2)n3C)cc1` [Example 1r5, N,N-Dimethyl-4-[(3S,4R)-1-[[4-(4-acetamidophenyl)-1-methyl-pyrrolo[2,3-b]pyridin-2-yl]methyl]-3-fluoro-4-piperidyl]benzamide], 0.11 µM.
In the case of `CNc1ccc(-c2ccnc3c2cc(CN2CCN(c4ccc(C(=O)N(C)C)cc4)CC2=O)n3C)cn1` [Example 1s5, N,N-Dimethyl-4-[4-[[1-methyl-4-[6-(methylamino)-3-pyridyl]pyrrolo[2,3-b]pyridin-2-yl]methyl]-3-oxo-piperazin-1-yl]benzamide], the Kd was found to be 0.0706 µM.
Turning to `CNc1ccc(-c2ccnc3c2cc(CN2CCC(n4ccc(C(=O)N(C)C)cc4=O)CC2)n3C)cn1` [Example 1s6, N,N-Dimethyl-1-[1-[[1-methyl-4-[6-(methylamino)-3-pyridyl]pyrrolo[2,3-b]pyridin-2-yl]methyl]-4-piperidyl]-2-oxo-pyridine-4-carboxamide], the Kd turned out to be 0.595 µM.
`CNc1ccc(-c2ccnc3c2cc(CN2CCC(c4ccc(C(=O)N(C)C)cc4C)CC2)n3C)cn1` [Example 1s9, N,N,3-Trimethyl-4-[1-[[1-methyl-4-[6-(methylamino)-3-pyridyl]pyrrolo[2,3-b]pyridin-2-yl]methyl]-4-piperidyl]benzamide]: the Kd amounted to 0.0481 µM.
For `CNc1ccc(-c2ccnc3c2cc(CN2CC=C(c4ccc(C(=O)N(C)C)cn4)CC2)n3C)cn1` [Example 1s11, N,N-Dimethyl-6-[1-[[1-methyl-4-[6-(methylamino)-3-pyridyl]pyrrolo[2,3-b]pyridin-2-yl]methyl]-3,6-dihydro-2H-pyridin-4-yl]pyridine-3-carboxamide], the dissociation constant (Kd) was 0.133 µM.
For `CNc1ccc(-c2ccnc3c2cc(CN2CCC(c4ncc(C(=O)N(C)C)cc4C)CC2)n3C)cn1` [Example 1s15, N,N,5-Trimethyl-6-[1-[[1-methyl-4-[6-(methylamino)-3-pyridyl]pyrrolo[2,3-b]pyridin-2-yl]methyl]-4-piperidyl]pyridine-3-carboxamide], the Kd is 0.119 µM.
Same read-out and setting: as for `CNc1ccc(-c2ccnc3c2cc(CN2CCC(F)(c4ccc(C(=O)N(C)C)cc4)CC2)n3C)cn1` [Example 1s26, 4-[4-Fluoro-1-[[1-methyl-4-[6-(methylamino)-3-pyridyl]pyrrolo[2,3-b]pyridin-2-yl]methyl]-4-piperidyl]-N,N-dimethyl-benzamide], the figure is 0.0616 µM; as for `CCS(=O)(=O)n1c(CN2CCC(c3ccc(C(=O)N(C)C)cc3)CC2)cc2c(-c3ccc(NC)nc3)ccnc21` [Example 1x2, 4-[1-[[1-Ethylsulfonyl-4-[6-(methylamino)-3-pyridyl]pyrrolo[2,3-b]pyridin-2-yl]methyl]-4-piperidyl]-N,N-dimethyl-benzamide], 0.0541 µM; as for `CNc1ccc(-c2ccnc3c2cc(CN2CCC(c4ccc(C(=O)N(C)C)cc4)CC2)n3CC(C)(C)C)cn1` [Example 1x3, 4-[1-[[1-(2,2-Dimethylpropyl)-4-[6-(methylamino)-3-pyridyl]pyrrolo[2,3-b]pyridin-2-yl]methyl]-4-piperidyl]-N,N-dimethyl-benzamide], 5.28 µM.
The same measure, in the same setting: as for `CNc1ccc(-c2ccnc3c2cc(C(C)N2CCC(c4ccc(C(=O)N(C)C)cc4)CC2)n3C)cn1` (stereo not shown) [Example 1z13, N,N-dimethyl-4-(1-(1-(1-methyl-4-(6-(methylamino)pyridin-3-yl)-1H-pyrrolo[2,3-b]pyridin-2-yl)ethyl)piperidin-4-yl)benzamide], the figure is 0.0223 µM; as for `CN(C)C(=O)c1ccc(C2CCN(Cc3cc4c(-c5ccc(N)nc5)ccnc4n3C)CC2)cc1` [Example 1z19, 4-(1-((4-(6-aminopyridin-3-yl)-1-methyl-1H-pyrrolo[2,3-b]pyridin-2-yl)methyl)piperidin-4-yl)-N,N-dimethylbenzamide], 0.0223 µM.

A word on the Emax: it is the greatest response seen or fitted, relative to the assay's reference. A word on the EC50: it is the concentration needed to bring the measured effect to its halfway point. Usually Kd stands for the free concentration of one partner at which half of the binding sites on the other are occupied at equilibrium, for simple one-to-one binding.
